Test results published in US20240300959A1, “BALASUBRAMIDE DERIVATIVE AND USE THEREOF IN PREPARATION OF MEDICINE FOR TREATING ACUTE LUNG INJURY” (Guangdong Pharmaceutical University, priority 2023, published 2024).

Experiments:
[1] = tested on: mice with acute lung injury caused by intratracheal instillation of lipopolysaccharide; assay: Intratracheal LPS acute lung injury: wet/dry ratio, BALF TNF-α, total protein, myeloid cells; format: in vivo, ICR mice
Method: Grouping and administration of animals: 50 male ICR mice were randomly divided into 3 groups according to the body weight, including a control group, a model group and a 50 mg/kg (+)3C-20 group. Drug preparation, administration and a modeling method were the same as those in Example 7. After continuous preadministration for 3 days, intratracheal instillation of LPS was performed for modeling 2 h after the last administration. 6 h after the modeling, a part of the mice were directly sacrificed, the whole lungs were taken out and weighed to obtain wet weight, then the whole lungs were dried at 60° C. for 24 h and weighed to obtain dry weight, and the wet-dry weight ratio of each group was calculated by statistics. 6 h after the modeling, the remaining mice were subjected to bronchoalveolar lavage, and then bronchoalveolar lavage fluid (BALF) was collected. A lavage process was as follows: After being sacrificed, the mice were placed faceup to fix the four limbs, the skin of the neck was cut, the trachea was separated and cut at an appropriate position to obtain a small incision, a 16G needle with a flat tip was inserted into the trachea at a depth of 1 cm, the trachea and the needle stem were tied tightly to obtain an indwelling needle, 400 μL of precooled PBS was sucked with a 1 mL syringe and slowly pushed into the trachea, suction was performed for two times, the operations above were repeated, and recovered BALF was combined with a recovery efficiency of 70%-80%. The collected BALF was subjected to centrifugation at 500×g at 4° C. for 5 min, a supernatant was collected, the content level of total protein in the supernatant was determined by a BCA kit, and the expression level of an inflammatory factor TNF-α in the BALF supernatant was detected according to an operation instruction of a commercial ELISA kit.
A bottom precipitate obtained after the centrifugation of the BALF was resuspended with 100 μL of an ACK buffer (Thermo A10492 stomatocytosis agent), evenly blown and subjected to standing for 1 min. Stomatocytosis was stopped with 1 mL of an FACS buffer (PBS containing 1% of FBS), centrifugation was performed at 500×g at 4° C. for 5 min, a supernatant was discarded, 100 μL of an FACS buffer was added, 1 μL of a CD16/CD32 Fc Block antibody (1:100) was added, and incubation was performed in the dark at 4° C. for 30 min. 1 mL of an FACS buffer was added, centrifugation was performed at 500×g at 4° C. for 5 min, a supernatant was discarded, and 100 μL of an FACS buffer was added for resuspension. Various fluorescent dyes (including mCD45-PerCP-Cy5.5, mCD11b-FITC, mF4/80-APC, mLy6C-PE, mLy6G-BV421 and FVS-780) were added at a ratio of 1:300, a single dye tube of each of the fluorescent dyes was prepared according to the above ratio, and incubation was performed in the dark at 4° C. for 30 min. 1 mL of an FACS buffer was added for resuspension, centrifugation was performed at 500×g at 4° C. for 5 min, and a supernatant was discarded. Washing was repeated for one time, centrifugation was performed to remove a supernatant, 500 μL of 1% paraformaldehyde was added for fixing in the dark for 30 min, centrifugation was performed at 500×g at 4° C. for 5 min, and a supernatant was discarded. 200 μL of an FACS buffer was added for resuspension, and a resulting suspension was stored in the dark at 4° C. Before loading on a machine, the stained cell suspension was diluted with an FACS buffer, transferred to a flow tube and detected according to an operation procedure of a CytoFlex flow cytometer. A flow gate strategy was as follows: Gain was first regulated according to each single dye tube, and compensation was properly regulated, where CD45^+, CD11b^+ and F4/80^+ were macrophages, CD45^+, CD11b^+ and Ly6G^+ were neutrophils, and CD45^+, CD11b^+ and Ly6C^+ were monocytes.

[2] = tested on: bone marrow derived macrophages (BMDMs); assay: CCK-8 cell viability of bone marrow derived macrophages; format: cell-based, C57BL/6J mice; settings: BMDM cell viability
Method: (1) Collection of bone marrow derived macrophages (BMDMs): C57BL/6J mice were sacrificed by dislocation of cervical vertebra, completely soaked and sterilized with 75% ethanol and placed faceup on a mouse board to fix the four limbs, the skin of the hind limbs was cut, the limbs were cut at ankle joints and femoral joints, and muscles and knee joints were removed. Precooled serum-free DMEM was sucked with a 1 mL syringe to rinse the bone marrow until a leg bone turned white, a rinsing solution was filtered with a 200-mesh filter membrane and then collected into a 15 mL centrifuge tube, centrifugation was performed at 500×g for 5 min, a supernatant was discarded, and a cell precipitate was resuspended with 1 mL of a red blood cell lysis buffer. After stomatocytosis was performed for 1 min, 5 mL of DMEM was added to stop the stomatocytosis, centrifugation was performed at 500×g for 5 min, a supernatant was discarded, and cells at a lower layer were resuspended overnight with DMEM containing 10% of FBS. Monocytes were collected by centrifugation and then resuspended with a DMEM culture medium containing 20% of FBS, and M-CSF was added at a final concentration of 25 ng/mL. The cells were inoculated into a 96-well plate at a density of 6×10^5, cultured in a cell incubator with a CO2 concentration of 5% at 37° C. for 48 h, and then cultured by adding M-CSF with a final concentration of 25 ng/mL into each well for 48 h until the monocytes were subjected to adherent culture and differentiation to obtain macrophages.
The expression level of an inflammatory factor TNF-α in a cell supernatant was detected according to an operation instruction of a commercial ELISA kit, and the cell viability at different administration concentrations of (+)3C-20 was determined according to an operation instruction of a CCK-8 kit.

[3] = 50 mg/kg i.p. 3 days, 6 h after intratracheal LPS, model group = 100

O=C(CCc1ccc(C(F)(F)F)cc1)O[C@@H]1C(=O)NCCc2c([nH]c3ccccc23)[C@H]1c1ccc(C(F)(F)F)cc1 [(+)-3C-20]
Level of TNF-α in BALF [1, 3]: 43.31 | Level of total protein in BALF [1, 3]: 73.44 | Wet/Dry ratio ([1]; 50 mg/kg i.p. 3 days, lung, 6 h after intratracheal LPS): 4.28 | Macrophage (%) ([1]; 50 mg/kg i.p., BALF flow cytometry CD45+ CD11b+ F4/80+): 0.82% | Monocyte (%) ([1]; 50 mg/kg i.p., BALF flow cytometry CD45+ CD11b+ Ly6C+): 4.13% | Neutrophil (%) ([1]; 50 mg/kg i.p., BALF flow cytometry CD45+ CD11b+ Ly6G+): 10.47% | Percentage of CCK-8 in a model group (%) ([2]; 0.1 μM): 100.35 ± 3.74% | Percentage of CCK-8 in a model group (%) ([2]; 1 μM): 96.71 ± 2.26% | Percentage of CCK-8 in a model group (%) ([2]; 2.5 μM): 97.49 ± 1.35% | Percentage of CCK-8 in a model group (%) ([2]; 5 μM): 89.87 ± 3.68%
